# Measurements as given in patent US20250197407A1 (Jazz Pharmaceuticals Ireland Limited, priority 2022, published 2025).
# Target: SOS1/KRAS WT (Homo sapiens (Human), UniProt Q07889)
# Test: SOS1/KRAS WT HTRF binding assay (FRET-based protein-protein interaction)
# Conditions: inhibition of His6-SOS1 (aa564-1049, 40 nM) binding to GST-KRAS-WT (aa1-188, 40 nM); at least two independent replicates; read-out: SOS1/KRAS WT HTRF Binding assay pIC50 (converted)
# Source text: The capacity of compounds to inhibit SOS1 binding to KRAS-WT (wild-type) was quantified using a FRET-based protein-protein interaction assay. The assay is based on the transfer of energy between two fluorophores, a donor and an acceptor, when in close proximity. In this instance, the donor is a Europium-conjugated α-GST antibody that binds to GST-tagged KRAS-WT, and the acceptor is an XL665-conjugated α-His 6 antibody that binds to His 6-tagged SOS1. Binding of SOS1 to KRAS-WT results in an increased fluorescent signal at emission wavelength of 665 nm which can be detected on the EnVision plate reader. Compounds that inhibit binding will reduce the 665 nm signal emitted. Recombinant KRAS-WT protein (40 nM; Human KRAS, aa1-188 recombinant protein with N-terminal GST-tag) and SOS1 protein (40 nM; Human SOS1 exchange domain, aa564-1049 with N-terminal 6His-tag) were mixed together in assay buffer (5 mM HEPES pH7.3, 150 mM NaCl, 10 mM EDTA, 5 mM MgCl2, 0.05% BSA, 0.0025% NP-40, 1 mM DTT and 100 mM KF) and incubated at room temperature with a dose response of compound in a 384-well low volume white plate and a final volume of 5 ul. After a 60 minute incubation, 5 ul of 4 nM anti-GST-Eu(K) (Cisbio, France) combined with 20 nM anti-6His-XL665 (Cisbio, France), diluted in assay buffer, was added to the plate. Following a further 4 hr incubation at room temperature, time-resolved fluorescence was measured on the EnVision plate reader. DMSO (0.05%) and 10 μM reference compound were used to generate the Max and Min assay signals, respectively. Data was analysed using a four-parameter logistic model to calculate IC50 values, with at least two independent replicates performed for each compound.
# Data was analyzed using a four-parameter logistic model to calculate IC50 values, with at least two independent replicates performed for each compound.
# SOS1/KRAS WT, sequence (Q07889 564-1049): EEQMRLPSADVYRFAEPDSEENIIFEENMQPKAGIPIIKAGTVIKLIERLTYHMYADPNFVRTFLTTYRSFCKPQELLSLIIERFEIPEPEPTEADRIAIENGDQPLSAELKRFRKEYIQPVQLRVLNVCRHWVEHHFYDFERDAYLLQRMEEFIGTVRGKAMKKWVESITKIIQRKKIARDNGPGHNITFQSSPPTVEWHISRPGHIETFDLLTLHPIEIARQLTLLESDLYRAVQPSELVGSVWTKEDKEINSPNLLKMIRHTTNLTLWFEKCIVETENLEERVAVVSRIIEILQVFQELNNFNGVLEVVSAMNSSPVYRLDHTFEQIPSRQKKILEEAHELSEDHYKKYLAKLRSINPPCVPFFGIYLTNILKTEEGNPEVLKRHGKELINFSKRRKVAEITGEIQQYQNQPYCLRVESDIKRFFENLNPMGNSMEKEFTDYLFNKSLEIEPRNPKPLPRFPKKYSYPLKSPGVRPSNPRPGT
row,Compound,IC50 [nM]
1,"Cc1nnc(N[C@H](C)c2cccc(C(F)(F)CN)c2F)c2cc3c(cc12)n(C)c(=O)n3C(C)(C)C [Compound 53, 3-tert-butyl-1,8-dimethyl-5-[[(1R)-1-[3-(2-amino-1,1-difluoro-ethyl)-2-fluoro-phenyl]ethyl]amino]imidazo[4,5-g]phthalazin-2-one]",5.01
2,"Cc1c([C@@H](C)Nc2nnc(C)c3cc4c(cc23)n(C)c(=O)n4C)cccc1C(F)(F)F [Compound 54, 1,3,8-trimethyl-5-[[(1R)-1-[2-methyl-3-(trifluoromethyl)phenyl]ethyl]amino] imidazo[4,5-g]phthalazin-2-one]",6.17
3,"COc1c([C@@H](C)Nc2nnc(C)c3cc4c(cc23)n(C)c(=O)n4C)cccc1C(F)(F)F [Compound 55, 5-[[(1R)-1-[2-methoxy-3-(trifluoromethyl)phenyl]ethyl]amino]-1,3,8-trimethyl-imidazo[4,5-g]phthalazin-2-one]",57.5
4,"Cc1nnc(N[C@H](C)c2cccc(C(F)(F)F)c2)c2cc3c(cc12)n(C1CC1)c(=O)n3C [Compound 56, 1-cyclopropyl-3,8-dimethyl-5-[[(1R)-1-[3-(trifluoromethyl)phenyl]ethyl]amino] imidazo[4,5-g]phthalazin-2-one]",11.5
5,"Cc1nnc(N[C@H](C)c2ccc3cn[nH]c3c2)c2cc3c(cc12)n(C)c(=O)n3C [Compound 57, 5-[[(1R)-1-(1H-indazol-6-yl)ethyl]amino]-1,3,8-trimethyl-imidazo[4,5-g]phthalazin-2-one]",93.3
6,Cc1c([C@@H](C)Nc2nnc(C)c3cc4c(cc23)n(C2CC2)c(=O)n4C)cccc1C(F)(F)F [Compound 58],6.61
7,"Cc1nnc(N[C@H](C)c2cccc(C(F)(F)C(C)(C)O)c2F)c2cc3c(cc12)C(C)(C)C(=O)N3C1CC1 [Compound 59, 1-cyclopropyl-3,3,5-trimethyl-8-[[(1R)-1-[3-(1,1-difluoro-2-hydroxy-2-methyl-propyl)-2-fluoro-phenyl]ethyl]amino]pyrrolo[2,3-g]phthalazin-2-one]",7.94
8,"Cc1nnc(N[C@H](C)c2cccc3[nH]ncc23)c2cc3c(cc12)n(C)c(=O)n3C [Compound 60, 5-[[(1R)-1-(1H-indazol-4-yl)ethyl]amino]-1,3,8-trimethyl-imidazo[4,5-g]phthalazin-2-one]",209
9,"Cc1nnc(N[C@H](C)c2cccc3c(F)cn(C)c23)c2cc3c(cc12)n(C)c(=O)n3C [Compound 61, 1,3,8-trimethyl-5-[[(1R)-1-(3-fluoro-1-methyl-indol-7-yl)ethyl]amino]imidazo[4,5-g]phthalazin-2-one]",100
10,"Cc1nnc(N[C@H](C)c2cccc(C(F)F)c2F)c2cc3c(cc12)C(C)(C)C(=O)N3C1CC1 [Compound 62, 1-cyclopropyl-3,3,5-trimethyl-8-[[(1R)-1-[3-(difluoromethyl)-2-fluoro-phenyl]ethyl]amino]pyrrolo[2,3-g]phthalazin-2-one]",10.7
11,"CNCC(F)(F)c1cccc([C@@H](C)Nc2nnc(C)c3cc4c(cc23)n(C)c(=O)n4C)c1F [Compound 63, 1,3,8-trimethyl-5-[[(1R)-1-[3-[1,1-difluoro-2-(methylamino)ethyl]-2-fluoro-phenyl]ethyl]amino]imidazo[4,5-g]phthalazin-2-one]",15.8
12,"Cc1nnc(N[C@H](C)c2cccc(C(F)(F)C(C)(C)O)c2)c2cc3c(cc12)n(C)c(=O)n3C [Compound 64, 1,3,8-trimethyl-5-[[(1R)-1-[3-(1,1-difluoro-2-hydroxy-2-methyl-propyl)phenyl]ethyl]amino]imidazo [4,5-g]phthalazin-2-one]",8.13
13,"Cc1nnc(N[C@H](C)c2cccc(C(F)(F)C(C)(C)O)c2)c2cc3c(cc12)C(C)(C)C(=O)N3C1CC1 [Compound 65, 1-cyclopropyl-3,3,5-trimethyl-8-[[(1R)-1-[3-(1,1-difluoro-2-hydroxy-2-methyl-propyl)phenyl]ethyl]amino]pyrrolo [2,3-g]phthalazin-2-one]",9.77
14,"Cc1c([C@@H](C)Nc2nnc(C)c3cc4c(cc23)N(C2CC2)C(=O)C4(C)C)cccc1C(F)(F)CO [Compound 66, 1-cyclopropyl-3,3,5-trimethyl-8-[[(1R)-1-[3-(1,1-difluoro-2-hydroxy-ethyl)-2-methyl-phenyl]ethyl]amino]pyrrolo[2,3-g]phthalazin-2-one]",8.51
15,"Cc1nnc(N[C@H](C)c2cccc(C(F)(F)C(C)(C)O)c2)c2cc3c(cc12)n(C)c(=O)n3C1CC1 [Compound 67, 3-cyclopropyl-1,8-dimethyl-5-[[(1R)-1-[3-(1,1-difluoro-2-hydroxy-2-methyl-propyl)phenyl]ethyl]amino]imidazo [4,5-g]phthalazin-2-one]",7.41
16,"Cc1c([C@@H](C)Nc2nnc(C)c3cc4c(cc23)n(C2CC2)c(=O)n4C)cccc1C(F)(F)CO [Compound 68, 3-cyclopropyl-1,8-dimethyl-5-[[(1R)-1-[3-(1,1-difluoro-2-hydroxy-ethyl)-2-methyl-phenyl]ethyl]amino]imidazo[4,5-g]phthalazin-2-one]",9.55
17,"Cc1c([C@@H](C)Nc2nnc(C)c3cc4c(cc23)N(C)C(=O)C4(C)C)cccc1C(F)(F)CO [Compound 69, 1,3,3,5-tetramethyl-8-[[(1R)-1-[3-(1,1-difluoro-2-hydroxy-ethyl)-2-methyl-phenyl]ethyl]amino]pyrrolo[2,3-g]phthalazin-2-one]",9.12
18,"Cc1nnc(N[C@H](C)c2cccc(C(F)(F)CO)c2)c2cc3c(cc12)n(C)c(=O)n3C1CC1 [Compound 70, 3-cyclopropyl-1,8-dimethyl-5-[[(1R)-1-[3-(1,1-difluoro-2-hydroxy-ethyl)phenyl]ethyl]amino]imidazo [4,5-g]phthalazin-2-one]",11.5
19,"Cc1c([C@@H](C)Nc2nnc(C)c3cc4c(cc23)N(C)C(=O)C42CCOCC2)cccc1C(F)(F)CO [Compound 72, 1,5-dimethyl-8-[[(1R)-1-[3-(1,1-difluoro-2-hydroxy-ethyl)-2-methyl-phenyl]ethyl]amino]spiro[pyrrolo [2,3-g]phthalazine-3,4′-tetrahydropyran]-2-one]",9.77
20,"Cc1nnc(N[C@H](C)c2cccc(C(F)(F)C(C)(C)O)c2F)c2cc3c(cc12)C1(CCOCC1)C(=O)N3C [Compound 73, 1,5-dimethyl-8-[[(1R)-1-[3-(1,1-difluoro-2-hydroxy-2-methyl-propyl)-2-fluoro-phenyl]ethyl]amino]spiro[pyrrolo [2,3-g]phthalazine-3,4′-tetrahydropyran]-2-one]",6.92
21,"Cc1nnc(N[C@H](C)c2cccc(C(F)(F)F)n2)c2cc3c(cc12)n(C)c(=O)n3C [Compound 74, 1,3,8-trimethyl-5-[[(1R)-1-[6-(trifluoromethyl)-2-pyridyl]ethyl]amino]imidazo[4,5-g]phthalazin-2-one]",912
22,"COC1(C)C(=O)N(C)c2cc3c(N[C@H](C)c4cccc(C(F)(F)C(C)(C)O)c4F)nnc(C)c3cc21 (stereo partly drawn) [Compound 75, 3-methoxy-1,3,5-trimethyl-8-[[(1R)-1-[3-(1,1-difluoro-2-hydroxy-2-methyl-propyl)-2-fluoro-phenyl]ethyl]amino]pyrrolo[2,3-g]phthalazin-2-one]",8.71
23,"Cc1c([C@@H](C)Nc2nnc(C)c3cc4c(cc23)n(C2(C)CC2)c(=O)n4C)cccc1C(F)(F)CO [Compound 76, 1,8-dimethyl-3-(1-methylcyclopropyl)-5-[[(1R)-1-[3-(1,1-difluoro-2-hydroxy-ethyl)-2-methyl-phenyl]ethyl]amino]imidazo[4,5-g]phthalazin-2-one]",6.03
24,"Cc1nnc(N[C@H](C)c2cccc(C(F)(F)C(C)(C)O)c2)c2cc3c(cc12)C(C)(C)C(=O)N3C [Compound 77, 1,3,3,5-tetramethyl-8-[[(1R)-1-[3-(1,1-difluoro-2-hydroxy-2-methyl-propyl)phenyl]ethyl]amino]pyrrolo [2,3-g]phthalazin-2-one]",11.2
25,"Cc1nnc(N[C@H](C)c2cccc(C(F)(F)CO)c2)c2cc3c(cc12)C(C)(C)C(=O)N3C [Compound 78, 1,3,3,5-tetramethyl-8-[[(1R)-1-[3-(1,1-difluoro-2-hydroxy-ethyl)phenyl]ethyl]amino]pyrrolo [2,3-g]phthalazin-2-one]",9.55
26,"Cc1c([C@@H](C)Nc2nnc(C)c3cc4c(cc23)N(C(C)C)C(=O)C4(C)C)cccc1C(F)(F)CO [Compound 79, 1-isopropyl-3,3,5-trimethyl-8-[[(1R)-1-[3-(1,1-difluoro-2-hydroxy-ethyl)-2-methyl-phenyl]ethyl]amino]pyrrolo[2,3-g]phthalazin-2-one]",6.76
